How the values were obtained:
hLPAR1 = molecular target: T1, hLPAR1 (Homo sapiens, UniProt Q92633); assay: Ca2+ Flux Assay (B103 cells stably expressing hLPAR1); assay type: cell-based; conditions: LPA-induced calcium release, Fura-2 AM, compound 20 min at RT
T1 construct: expressed in transfected cells
Protocol: B103 cells stably expressing hLPAR1 were seeded at a density of 1.0×10^5 cells per well in clear flat-bottom black 96-well plates and incubated overnight in complete media. The following day, the cells were pre-incubated in serum-free media for 2 hours prior to ensure cellular equilibration. For the loading a calcium-sensitive fluorescent dye, the cells were treated with a concentration of 5 μM Fura-2 AM dye (Sigma, F1225) in Hank's buffered salt solution (HBSS) supplemented with 20 mM HEPES, […], and 0.3% fatty-acid-free bovine serum albumin for 40 minutes at room temperature (RT). Test compounds, prepared in DMSO, were then added to each well and incubated for 20 minutes at RT. To induce calcium release, a concentration of […] in HBSS supplemented with 20 mM HEPES, and 0.3% fatty-acid-free bovine serum albumin was introduced. Intracellular calcium mobilization was subsequently quantified by monitoring the fluorescence intensity using the Spark® multimode microplate reader (TECAN).

A2058 cells = assay: Chemotaxis Assay (LPA-induced migration of A2058 cells); assay type: cell-based; conditions: Homo sapiens, 4 to 8 hours, crystal violet 590 nm
Protocol: For monitoring the migration of cells, Neuroprobe ChemoTx® System plates ([…], 5.7 mm diameter sites; Gaithersburg, MD, USA) were utilized. To induce cell migrations, a concentration of […] or vehicle in DMEM were loaded to the bottom chamber. A total of 15,000 A2058 cells, which were starved for 24 hr following treated with test compounds or vehicle, were then applied to the upper membrane coated with 0.001% fibronectin. The plate was incubated for 4 to 8 hours to allow cell migration. Following incubation, the plate was dissembled, and the migrated cells were visualized by crystal violet staining. The stained area with crystal violet was quantified by measuring the absorbance at 590 nm and the relative percentage of the control was calculated.

BSEP = molecular target: T2, BSEP (Homo sapiens, UniProt O95342); assay: Bile Salt Export Pump (BSEP) Assay, Sf9 insect cell vesicles expressing BSEP; assay type: in vitro ADME; conditions: 10 μM test compound, probe substrate 1 μM [3H]-taurocholic acid, 15 min incubation
T2 construct: ATP-dependent uptake of radiolabelled probe substrate
Protocol: • 1. A stock solution was prepared with the test article (Sponsor compound) in DMSO. • 2. All final assay solutions of probe substrate, reference inhibitor or test article contain 0.5% (v/v) DMSO (vehicle control). • 3. Test article concentrations in transport study were specified in the Summary Table of Experimental Conditions of this protocol.
• 1. Bovine Serum Albumin (BSA) • 2. Dimethyl sulfoxide (DMSO) • 3. BSEP Assay Uptake Buffer (10 mM HEPES-Tris pH 7.4, 0.1 M KNO3, 12.5 mM Mg(NO3)2, 50 mM sucrose) • 4. BSEP Wash Buffer (10 mM Tris-HCl pH 7.4, 0.1 M KNO3, 50 mM sucrose) • 5. BSEP Blocking Buffer (BSEP Wash Buffer+0.5 mg/mL BSA) • 6. 25 mM Mg-ATP solution • 7. 25 mM AMP solution • 8. Corning Costar 96-well flat-bottom, untreated, white Assay Plate (Corning Cat. No. 3912) • 9. Millipore MultiscreenHTs Filtration Plate, glass fiber FB—1.0/0.65 μm (Cat. No. MSFBN6B10 or glass fiber FC—1.2/0.65 μm (Cat. No. MSFCN6B10) • 10. Millipore MultiscreenHTS Vacuum Manifold (Cat. No. MSVMHTS00) • 11. Probe substrates listed in Table 1 • 12. Reference inhibitors listed in Table 1 • 13. Test articles
• 1. Test system: • a. 96-well flat bottom plate containing a suspension of vesicles and a corresponding 96-well glass fiber filtration plate. • b. Transport experiments were conducted in the Assay Uptake Buffer. • c. Transport experiment was initiated with the addition of Mg-ATP or AMP to appropriate wells. • d. Each condition was run in triplicate wells. • 2. Prepared the 96-well flat-bottom assay plate. • a. Incubated the assay plate with the Blocking Buffer for 60 min at 37 °C with orbital shaking at approximately 90 rpm. (NOTE: This is done to prevent non-specific binding of vesicles to polystyrene assay plate). • b. After 60 min, completely removed the Blocking Buffer from the assay plate. • c. The Assay Uptake Buffer solutions were added to the assay plate wells as follows: • i. For probe substrate transport assays, the Assay Uptake Buffer contained vesicles and the probe substrate at the specified concentration. • ii. For the reference inhibition assay, the Assay Uptake Buffer contained vesicles, the reference inhibitor and the probe substrate at the specified concentration in Table 1. • iii. For the test article assays, Assay Uptake Buffer contained vesicles, the test article and the probe substrate at the specified concentration in Table 1. • 3. Incubate at 37 °C with orbital shaking at approximately 90 rpm for the time period specified in Table 1 of this protocol. • 4. Using the 25 mM Mg-ATP or AMP stocks, Mg-ATP or AMP was added to test wells of flat bottom assay plate to a final concentration of 5 mM. • 5. Incubated at 37 °C with orbital shaking at approximately 90 rpm for the incubation time specified in Table 1 of this protocol. • 6. Prepared the 96-well glass fiber filtration plate: • a. Incubated the filtration plate with the Blocking Buffer for 2 min at room temperature with under no vacuum. • b. Turned on vacuum and allowed Blocking Buffer to filter through plate. • c. With vacuum on, filter plate was washed with ice cold Wash Buffer. • 7. At the end of the specified incubation time indicated in […] of this protocol, vesicle transport was quenched by adding ice cold Wash Buffer to samples in 96-well assay plate. • 8. Mixed assay samples (now diluted in Wash Buffer) with pipette and transfered 175 μL into the 96-well glass fiber filtration plate to separate vesicles from buffer by applying vacuum. • 9. Washed filter plate wells with ice cold Wash Buffer. • 10. Allowed filter plate to dry under vacuum. • 11. Transfered filters to scintillation sample plate and added 700 μL of scintillation fluid to the above samples. • 12. Counted the above samples on a 1450 Microbeta (Perkin-Elmer).
• 1. The amount of substrate was quantified with radiometric detection on a 1450 Microbeta (Perkin-Elmer). • 2. For transport study samples run in triplicate, the mean and standard deviation of the replicates were reported. • 3. […]

T2 sequence (O95342 whole entry): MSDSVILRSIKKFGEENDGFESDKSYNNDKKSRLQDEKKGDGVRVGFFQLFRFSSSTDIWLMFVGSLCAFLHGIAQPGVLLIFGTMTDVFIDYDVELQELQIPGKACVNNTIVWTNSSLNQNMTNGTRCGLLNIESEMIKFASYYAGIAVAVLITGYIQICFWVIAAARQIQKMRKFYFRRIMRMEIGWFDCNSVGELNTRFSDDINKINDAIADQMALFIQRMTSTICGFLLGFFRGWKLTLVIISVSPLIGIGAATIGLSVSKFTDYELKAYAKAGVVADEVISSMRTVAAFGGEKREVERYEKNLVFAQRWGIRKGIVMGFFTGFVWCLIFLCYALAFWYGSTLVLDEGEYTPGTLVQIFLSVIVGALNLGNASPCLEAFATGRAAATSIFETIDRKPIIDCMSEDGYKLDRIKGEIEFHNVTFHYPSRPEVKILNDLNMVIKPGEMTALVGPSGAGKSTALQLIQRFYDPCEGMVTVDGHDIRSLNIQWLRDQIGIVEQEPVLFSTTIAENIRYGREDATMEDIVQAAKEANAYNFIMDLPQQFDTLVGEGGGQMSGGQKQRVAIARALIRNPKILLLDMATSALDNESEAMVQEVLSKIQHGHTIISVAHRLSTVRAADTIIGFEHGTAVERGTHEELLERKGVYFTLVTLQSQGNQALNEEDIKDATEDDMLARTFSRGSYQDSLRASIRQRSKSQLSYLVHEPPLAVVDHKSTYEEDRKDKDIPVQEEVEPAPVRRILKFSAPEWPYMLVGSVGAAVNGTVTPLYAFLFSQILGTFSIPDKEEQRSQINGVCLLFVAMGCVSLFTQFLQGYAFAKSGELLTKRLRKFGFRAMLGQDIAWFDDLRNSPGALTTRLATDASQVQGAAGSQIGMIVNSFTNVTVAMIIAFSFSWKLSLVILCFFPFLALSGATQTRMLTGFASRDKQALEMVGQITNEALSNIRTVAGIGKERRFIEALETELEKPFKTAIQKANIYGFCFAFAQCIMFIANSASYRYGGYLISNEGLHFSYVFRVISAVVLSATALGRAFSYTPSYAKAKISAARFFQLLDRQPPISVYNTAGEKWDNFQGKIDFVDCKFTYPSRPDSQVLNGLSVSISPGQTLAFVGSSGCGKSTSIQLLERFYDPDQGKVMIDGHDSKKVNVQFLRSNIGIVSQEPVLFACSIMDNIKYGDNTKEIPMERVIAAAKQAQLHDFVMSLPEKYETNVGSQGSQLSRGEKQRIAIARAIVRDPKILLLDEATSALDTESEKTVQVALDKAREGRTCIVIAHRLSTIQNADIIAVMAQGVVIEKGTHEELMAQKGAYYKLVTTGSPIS
T1 sequence (Q92633 whole entry): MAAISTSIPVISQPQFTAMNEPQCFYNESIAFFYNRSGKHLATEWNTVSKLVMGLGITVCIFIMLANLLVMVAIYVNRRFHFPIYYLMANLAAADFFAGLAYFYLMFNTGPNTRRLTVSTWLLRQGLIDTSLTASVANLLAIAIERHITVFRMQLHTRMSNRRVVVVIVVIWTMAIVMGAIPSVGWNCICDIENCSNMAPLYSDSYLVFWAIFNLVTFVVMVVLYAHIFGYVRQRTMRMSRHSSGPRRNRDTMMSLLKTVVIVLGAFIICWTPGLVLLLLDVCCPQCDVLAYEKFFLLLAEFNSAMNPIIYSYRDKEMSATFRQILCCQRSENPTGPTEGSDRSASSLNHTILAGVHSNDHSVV

SMILES	IC50 (hLPAR1) [nM]	IC50 (A2058 cells) [nM]	inhibition at 0.25 h, 10 µM (BSEP) [%]
C[C@@H](OC(=O)Nc1c(C2CCN(c3ccc(C4(C(=O)O)CC4)cc3)CC2)cnn1C)c1ccccc1 [Compound 55]	10 to 200	100 to 500	25 to 50
C[C@@H](OC(=O)Nc1c(C2CCN(c3ccc(C4(C(=O)NS(=O)(=O)CC(=O)O)CC4)cc3)CC2)nnn1C)c1ccccc1 [Compound 58, 2-[[1-[4-[4-[1-methyl-5-[[(1R)-1-phenylethoxy]carbonylamino]triazol-4-yl]-1piperidyl]phenyl]cyclopropanecarbonyl]sulfamoyl]acetic acid]	10 to 200	100 to 500	≤ 25
C[C@@H](OC(=O)Nc1c(C2CCN(c3ccc(C4(C(=O)NS(=O)(=O)CCO)CC4)cc3)CC2)nnn1C)c1ccccc1 [Compound 59]	< 10	100 to 500	≤ 25
C[C@@H](OC(=O)Nc1c(C2CCN(c3ccc(C4(C(=O)O)CC4)cc3)CC2)nnn1C)c1ccccc1 [Compound 60, (R)-1-(4-(4-(1-methyl-5-(((1-phenylethoxy)carbonyl)amino)-1H-1,2,3-triazol-4-yl)piperidin-1-yl)phenyl)cyclopropane-1-carboxylic acid]	10 to 200	100 to 500	≤ 25
Cc1cc(C2(C(=O)O)CC2)ccc1N1CCC(c2onc(C)c2NC(=O)O[C@H](C)c2ccccc2)CC1 [Compound 61]	< 10	< 100	50 to 75
COc1cc(C2(C(=O)O)CC2)ccc1N1CCC(c2onc(C)c2NC(=O)O[C@H](C)c2ccccc2)CC1 [Compound 63, (R)-1-(3-methoxy-4-(4-(3-methyl-4-(((1-phenylethoxy)carbonyl)amino)isoxazol-5-yl)piperidin-1-yl)phenyl)cyclopropane-1-carboxylic acid]	< 10	< 100	≤ 25
CNC(=O)C1(c2ccc(N3CCC(c4onc(C)c4NC(=O)O[C@H](C)c4ccccc4)CC3)cc2)CC1 [Compound 65]	10 to 200	100 to 500	50 to 75
Cc1noc(C2CCN(c3ccc(C4(C(=O)NS(=O)(=O)C(C)C(=O)O)CC4)cc3)CC2)c1NC(=O)O[C@H](C)c1ccccc1 (stereo partly drawn) [Compound 71]	< 10	< 100	25 to 50
Cc1noc(C2CCN(c3ccc(C4(C(=O)NS(=O)(=O)C(C)CC(=O)O)CC4)cc3)CC2)c1NC(=O)O[C@H](C)c1ccccc1 (stereo partly drawn) [Compound 72]	< 10	< 100	≤ 25
Cc1noc(C2CCN(c3ccc(C4(C(=O)O)CC4)cc3)CC2)c1NC(=O)O[C@H](C)c1ccccc1Cl [Compound 74, 1-(4-{4-[4-({[(1R)-1-(2-chlorophenyl)ethoxy]carbonyl}amino)-3-methyl-1,2-oxazol-5-yl]piperidin-1-yl}phenyl)cyclopropane-1-carboxylic acid]	< 10	< 100	50 to 75
Cc1noc(C2CCN(c3ccc(C4(C(=O)NS(=O)(=O)CC(C)(C)C(=O)O)CC4)cc3)CC2)c1NC(=O)O[C@H](C)c1ccccc1 [Compound 78, (R)-2,2-dimethyl-3-(N-(1-(4-(4-(3-methyl-4-(((1-phenylethoxy)carbonyl)amino)isoxazol-5-yl)piperidin-1-yl)phenyl)cyclopropane-1-carbonyl)sulfamoyl)propanoic acid]	< 10	< 100	25 to 50
Cc1noc(C2CCN(c3ccc(C4(C(=O)NS(=O)(=O)CC(C)CO)CC4)cc3)CC2)c1NC(=O)O[C@H](C)c1ccccc1 (stereo partly drawn) [Compound 79, (1R)-1-phenylethyl N-{5-[1-(4-{1-[(3-hydroxy-2-methylpropanesulfonyl)carbamoyl]cyclopropyl}phenyl)piperidin-4-yl]-3-methyl-1,2-oxazol-4-yl}carbamate]	< 10	< 100	25 to 50
Cc1noc(C2CCN(c3ccc(C4(C(=O)O)CC4)nc3)CC2)c1NC(=O)O[C@H](C)c1ccccc1 [Compound 90]	10 to 200	100 to 500	25 to 50

From patent US20260356824A1, “COMPOUNDS FOR TREATING FIBROTIC DISEASES” (Meta-Immue Inc., priority 2023, published 2026)
